Literature values as cited in US6676963B1, “Ligand-targeted emulsions carrying bioactive agents” (Barnes-Jewish Hospital, priority 2000, dated 2004).
Like-named read-outs stand apart in the source and are kept apart here.

Conditions: for solubility in water / buffer (in words): water or aqueous buffer

Row | solubility in water / buffer (in words) | solubility in lipid emulsions (in words) (lipid emulsions such as Intralipid or Liposyn) | solubility in water / buffer (in words) (listed as paclitaxel) | SMILES
1 | highly water soluble | – | – | COc1cccc2c1C(=O)c1c(O)c3c(c(O)c1C2=O)C[C@@](O)(C(=O)CO)C[C@@H]3O[C@H]1C[C@H](N)[C@H](O)[C@H](C)O1 [Doxorubicin, doxorubicin]
2 | insoluble in water | insoluble in lipid emulsions | highly insoluble in buffer | CC(=O)O[C@H]1C(=O)[C@@]2(C)[C@H]([C@H](OC(=O)c3ccccc3)[C@]3(O)C[C@H](OC(=O)[C@H](O)[C@@H](NC(=O)c4ccccc4)c4ccccc4)C(C)=C1C3(C)C)[C@]1(OC(C)=O)CO[C@@H]1C[C@@H]2O [taxol, paclitaxel]
